Test results: paper PMC3969094 (Journal of Medicinal Chemistry, 2014)
Positions of bridges follow the written chain, without caps; N, C: chain ends. Non-standard residues stand in square brackets, D forms with d. Residues, ends and D or L forms follow the SMILES beside them. *: point of attachment. FITC = O=C1OC2(c3ccc(O)cc3Oc3cc(O)ccc32)c2ccc(NC(=S)*)cc21; Phe(3,4-Cl2) = N[C@@H](Cc1ccc(Cl)c(Cl)c1)C(=O)O; S5 = C=CCCC[C@](C)(N)C(=O)O; Ahx = NCCCCCC(=O)O

Columns and labels:
[1] = target: RPA70N (Homo sapiens, UniProt P27694); assay: FPA direct binding of FITC-labeled peptides; conditions: stapled peptides, versus phenylalanine counterparts
[2] = target: RPA70C/32D/14; assay: Direct binding FPA assay, selectivity; conditions: read-out: Kd for RPA70C/32D/14, FITC-labeled stapled peptide

| SMILES | increase in affinity by dichlorophenylalanine substitution [1] [fold] | Kd [2] [nM] |
| --- | --- | --- |
| CC(C)C[C@H](NC(=O)[C@H](C)NC(=O)[C@H](Cc1ccc(Cl)c(Cl)c1)NC(=O)[C@H](Cc1c[nH]c2ccccc12)NC(=O)[C@]1(C)CCCC=CCCC[C@](C)(NC(=O)[C@H](C)NC(=O)[C@@H](NC(=O)[C@H](Cc2ccccc2)NC(=O)[C@H](CC(N)=O)NC(=O)CCCCCNC(=S)Nc2ccc3c(c2)C(=O)OC32c3ccc(O)cc3Oc3cc(O)ccc32)[C@@H](C)O)C(=O)N[C@@H](CC(N)=O)C(=O)N[C@@H](CC(C)C)C(=O)N[C@@H](CCC(=O)O)C(=O)N1)C(N)=O [Peptide-39] ({FITC-Ahx}-NFTA[S5]NLE[S5]W[Phe(3,4-Cl2)]AL-NH2; staple 5-9) | 175 | 2400 |
| CC(C)C[C@H](NC(=O)[C@H](C)NC(=O)[C@H](Cc1ccc(Cl)c(Cl)c1)NC(=O)[C@H](Cc1c[nH]c2ccccc12)NC(=O)[C@]1(C)CCCC=CCCC[C@](C)(NC(=O)[C@H](C)NC(=O)[C@@H](NC(=O)[C@H](Cc2ccccc2)NC(=O)[C@H](CC(N)=O)NC(=O)CCCCCNC(=S)Nc2ccc3c(c2)C(=O)OC32c3ccc(O)cc3Oc3cc(O)ccc32)[C@@H](C)O)C(=O)N[C@@H](CC(=O)O)C(=O)N[C@@H](CC(C)C)C(=O)N[C@@H](CCC(=O)O)C(=O)N1)C(N)=O [Peptide-38] ({FITC-Ahx}-NFTA[S5]DLE[S5]W[Phe(3,4-Cl2)]AL-NH2; staple 5-9) | 31 | – |
